Experimental data as given in paper PMC12612973, “Inhibition of Human Amylin Aggregation: In Silico and In Vitro Studies” (ACS Omega, 2025).
Where “and” joins values, the source holds several entries; their conditions need not be identical. Identical values can stand only once.

Tests used:
human amylin (hIAPP) [1] = molecular target: T1, human amylin (hIAPP) (Homo sapiens, UniProt P10997); test: Thioflavin T (ThT) fluorescence assay of amylin aggregation; type: biochemical; settings: read-out: IC50 of amylin aggregation inhibition
T1 construct: purchased Bachem USA
T1 sequence (P10997 34-70 limits assumed): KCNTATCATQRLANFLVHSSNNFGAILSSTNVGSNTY

human amylin (hIAPP) [2] = molecular target: T1, human amylin (hIAPP); test: Kinetic analysis of amylin aggregation (ThT, two-step autocatalytic aggregation model); type: biochemical; settings: mean ± S.D.; for t 0 (time point when the aggregation starts): 10% of highest ThT fluorescence; for t 1/2 (aggregation halftime): 50% of highest ThT fluorescence; for t 1 (aggregation endpoint): 90% of highest ThT fluorescence; for k / k e (elongation constant) / k n (nucleation constant) / ρ (ratio of kn to k): ThT data, autocatalytic aggregation model
Method: Kinetic analysis was performed according to the model of autocatalytic aggregation. According to Sabaté et al., aggregation is a two-step process, comprising nucleation (described by the k n constant) and fibrillation phases (represented by the k e constant). Two constants (k n and k e) are calculated using the eq : 5 f=ρ{e^[(1+ρ)kt]−1}/{1+ρe^[(1+ρ)kt]} where k = k e a (where a represents the initial concentration of the aggregating peptide), f stands for a fraction of the fibrillar form in the system, and ρ denotes the dimensionless ratio of k n to k. The parameters k and ρ were calculated first, then k n and k e.
Data were normalized as a fraction of the highest fluorescence from the three trials and fitted into the model of autocatalytic aggregation. The same procedure was repeated for the remaining trials. The second calculation aimed to find the time parameters of the aggregation process: t 0 (time point when the aggregation starts), t 1/2 (aggregation halftime), and t 1 (aggregation endpoint). t 0, t 1/2, and t 1 were calculated as 10%, 50%, and 90% of the highest fluorescence measurements from the three trials, respectively. All calculations were performed using GraphPad Prism 9.5.1, Statistica 13.3.721.1, and Microsoft Excel 2304.

human amylin (hIAPP) [3] = molecular target: T1, human amylin (hIAPP); test: Thioflavin T (ThT) fluorescence assay of amylin aggregation; type: biochemical; settings: for inhibition at 10 µM: read-out: ThT inhibition % (mean ± SEM), compound 10 μM, amylin 15 μM, 36 h incubation, 3 trials
Method: (§1) A stock solution of amylin (1 mM) (purchased from Bachem USA), peptide sequence: […] amide (with disulfide bond between Cys2 and Cys7), was prepared in 100% hexafluoroisopropyl alcohol (HFIP) (purchased from Sigma-Aldrich) and stored at −20 °C. , Aliquots of amylin peptide were filtered through a 0.22 μm filter from the stock solution and freeze-dried. For kinetic experiments, 15 μM of amylin was prepared in 50 mM Tris-HCl buffer (pH 7.4), as investigated in previous studies by Chaari et al., , Samples of amylin were prepared in the presence or absence of inhibitors. Each compound was dissolved in DMSO and further diluted with the buffer used to solubilize the amylin. The final mixture contained 15 μM amylin, 10 μM of the test compound, 2% DMSO or 15 μM amylin, and 2% DMSO without the compound (negative control). Also 15 μM amylin, 10 μM of oleuropein aglycone and 2% DMSO was used as a positive control. The prepared solutions were incubated under physiological conditions (pH 7.4 and 37 °C) for amylin aggregation. Samples were incubated for 36 h to test for amylin aggregation, and measurements were conducted at different time points.
Amylin aggregation was monitored by characteristic changes in Thioflavin T (ThT) fluorescence intensity. A ThT stock solution (15 μM) was prepared in deionized water at pH 7.4. The amylin samples were mixed with the ThT solution and allowed to incubate. ThT fluorescence was measured using the PerkinElmer model LS 55 fluorescence spectrophotometer (PerkinElmer, USA), with an excitation wavelength of 440 nm and an emission wavelength of 480 nm. ,− The emission and excitation slits were set to 5 nm, and a 1 cm cuvette was used for all experiments. Nonspecific background fluorescence was subtracted from the samples using appropriate blanks in the absence of proteins. Each experiment was performed in triplicate.

human amylin (hIAPP) [4] = molecular target: T1, human amylin (hIAPP); test: Dynamic light scattering (DLS) assay of amylin aggregation; type: biochemical; settings: compound 10 μM, amylin 15 μM, 36 h incubation, 3 trials; read-out: DLS inhibition % (mean ± SEM)
Method: as §1
DLS (Zetasizer, Malvern) was used at a wavelength of 633 nm to measure the average diffusion coefficient distribution of amylin particles and the aggregation percentage. Samples were diluted 10-fold, and 50 μL was placed into a 96-well plate. The total light scattering intensity at a 90° angle was collected using a 10 s averaging acquisition time. Particle translational diffusion coefficients were calculated from autocorrelated light intensity data (usually 30–40 points) and converted to the hydrodynamic radius (R h) using the Stokes–Einstein equation. A distribution plot of intensity versus R h was calculated using the Sedfit 9.3 analysis software, and intensity-weighted mean R h values were obtained from each peak.

Aβ = tested on: Aβ; set-up: method as in Panek et al.; settings: ref Panek et al.; cited from earlier work

With `C/C=C1/C(O)OC=C(C(=O)OC)[C@H]1CC(=O)OCCc1ccc(O)c(O)c1` (mixture of isomers) [Oleuropein aglycone, reference compound] the IC50 (human amylin (hIAPP) [1]) was 1000 nM, the “t 0 (time point when the aggregation starts)” value (human amylin (hIAPP) [2]) was 10.76 ± 0.25 h and the “t 1/2 (aggregation halftime)” value (human amylin (hIAPP) [2]) was 19.67 ± 0.31 h. For the same molecule, the “t 1 (aggregation endpoint)” value (human amylin (hIAPP) [2]) was 28.83 ± 0.30 h, the k (human amylin (hIAPP) [2]) was 0.2366 ± 0.0075 h^–1 and the “k e (elongation constant)” value (human amylin (hIAPP) [2]) was 15773 ± 650 M^–1h^–1. For the same molecule, the “k n (nucleation constant)” value (human amylin (hIAPP) [2]) was 0.0022 ± 0.0005 h^–1, the “ρ (ratio of kn to k)” value (human amylin (hIAPP) [2]) was 0.0093 ± 0.0002 and the “k e (elongation constant)” value (human amylin (hIAPP) [2]; listed as oleuropein aglycone) was 15773 M^–1h^–1. The “ThT inhibition % (mean ± SEM)” value (human amylin (hIAPP) [3]; compound 10 μM, amylin 15 μM, 36 h incubation, 3 trials) was 82.3 ± 2.0%.

For `CCCC(C)N1CCN(CC(O)CNCc2ccc(OC)cc2)CC1` (stereo not shown) [Compound 1], the inhibition at 10 µM (human amylin (hIAPP) [4]) was 19.7 ± 2% and the inhibition at 10 µM (human amylin (hIAPP) [3]) was 13.1 ± 1.8%.

`COc1ccc(CNCC(O)CN2CCN(c3ccccc3)CC2)cc1` (stereo not shown) [Compound 2] showed an inhibition at 10 µM (human amylin (hIAPP) [4]) of 6.9 ± 0.5% and an inhibition at 10 µM (human amylin (hIAPP) [3]) of 5 ± 0.7%.

For `COc1ccc(CNCC(O)CN2CCN(Cc3ccccc3)CC2)cc1` (stereo not shown) [Compound 3], the inhibition at 10 µM (human amylin (hIAPP) [4]) was 17.9 ± 1.4% and the inhibition at 10 µM (human amylin (hIAPP) [3]) was 8.8 ± 4.9%.

Molecule `OC(CNCc1ccccc1)CN1CCN(C(c2ccccc2)c2ccccc2)CC1` (stereo not shown) [Compound 4] has an inhibition at 10 µM (human amylin (hIAPP) [4]) of 20 ± 1.9% and an inhibition at 10 µM (human amylin (hIAPP) [3]) of 15.5 ± 0.7%.

Molecule `COc1ccc(CNCC(O)CN2CCN(C(c3ccccc3)c3ccccc3)CC2)cc1` (stereo not shown) [Compound 5] has an inhibition at 10 µM (human amylin (hIAPP) [4]) of 19.5 ± 2.2% and an inhibition at 10 µM (human amylin (hIAPP) [3]) of 12.1 ± 1.1%.

In the case of `CC(C)(C)c1cccc(CNCC(O)CN2CCN(C(c3ccccc3)c3ccccc3)CC2)c1` (stereo not shown) [Compound 6], the “inhibition of Aβ aggregation in the ThT assay” value (Aβ) is listed as 77.2%, the IC50 (human amylin (hIAPP) [1]) is listed as 4110 nM and the inhibition at 10 µM (human amylin (hIAPP) [4]) is listed as 30.3 ± 3.1%. For the same molecule, the “t 0 (time point when the aggregation starts)” value (human amylin (hIAPP) [2]) was 8.36 ± 0.56 h, the “t 1/2 (aggregation halftime)” value (human amylin (hIAPP) [2]) was 16.61 ± 0.27 h and the “t 1 (aggregation endpoint)” value (human amylin (hIAPP) [2]) was 25.27 ± 0.39 h. For the same molecule, the k (human amylin (hIAPP) [2]) was 0.2488 ± 0.0157 h^–1, the “k e (elongation constant)” value (human amylin (hIAPP) [2]) was 16585 M^–1h^–1 and 16585 ± 1051 M^–1h^–1 and the “k n (nucleation constant)” value (human amylin (hIAPP) [2]) was 0.0039 ± 0.0009 h^–1. The “ρ (ratio of kn to k)” value (human amylin (hIAPP) [2]) was 0.0159±0.0044 and the inhibition at 10 µM (human amylin (hIAPP) [3]) was > 50%.

In the case of `COc1ccc(CNCC(O)CN2CCN(C(c3ccc(F)cc3)c3ccc(F)cc3)CC2)cc1` (stereo not shown) [Compound 7], the inhibition at 10 µM (human amylin (hIAPP) [4]) is reported as 18.6 ± 1.4% and the inhibition at 10 µM (human amylin (hIAPP) [3]) is reported as 17 ± 0.7%.

Work on `CCCC(C)N1CCN(CCC(O)CNCc2ccc(OC)cc2)CC1` (stereo not shown) [Compound 8] yielded an inhibition at 10 µM (human amylin (hIAPP) [4]) of 20.1 ± 2% and an inhibition at 10 µM (human amylin (hIAPP) [3]) of 20.8 ± 1%.

In the case of `COc1ccc(CNCC(O)CCN2CCN(c3ccccc3)CC2)cc1` (stereo not shown) [Compound 9], the inhibition at 10 µM (human amylin (hIAPP) [4]) is reported as 10 ± 0.5% and the inhibition at 10 µM (human amylin (hIAPP) [3]) is reported as 4.3 ± 0.7%.
